# Target: T1, IP receptor (Homo sapiens, UniProt P43119)
# T1 construct: expressed in transfected cells; host or cells: CHO cells stably expressing the IP receptor (CHO-IP)
# Assay: cAMP accumulation in CHO cells stably expressing the IP receptor (CHO-IP), PerkinElmer AlphaScreen assay
# Format: cell-based
# Conditions: 1 hour at room temperature, Table 1, read-out: EC50
# Protocol: Activity of compounds at the IP receptor (IP receptor) is assessed by measuring cAMP accumulation in CHO cells stably expressing the IP receptor (CHO-IP) using the PerkinElmer AlphaScreen assay. This technology measures the endogenous production of cAMP, in a non-radioactive luminescence proximity homogenous assay. A biological reaction occurs between streptavidin coated donor beads, biotinylated cAMP and anti-cAMP acceptor beads, bringing the donor and acceptor beads close enough together so that upon excitation a fluorescence signal is produced. On production of endogenous cAMP, competition between the biotinylated cAMP and cellular-derived cAMP causes a reduction in the fluorescent signal. The reduction in signal is proportional to the amount of cAMP being produced, thus it is possible to quantify the amount of cAMP being produced on stimulation with agonist.
# Test and reference compounds are prepared at 100×[final] in 100% DMSO, and diluted 1:3 using a Biomek Fx (Beckman Coulter). This is followed by an intermediate dilution to give 5×[final] in assay buffer (HBSS containing 5 mM HEPES, 0.1% (w/v) BSA). 5 μL of 5×[final] test compounds, reference compounds and buffer/DMSO control are then transferred to a 384-well white OptiPlate, containing 20 μL CHO—IP cell suspension (15,000 cells/well, prepared from frozen), and plate is incubated at room temperature for 1 hour. A cAMP standard curve is constructed for each experiment (concentration range of 10000 nM to 0.001 nM, in assay buffer) and 25 μL of each concentration added to the last two columns of the assay plate. The incubation is terminated by the addition of lysis buffer (dH2O; 0.3% (v v^−1) Tween-20) containing 20 units mL^−1 streptavidin coated donor beads and biotinylated cAMP (pre-incubated for 30 minutes) and 20 units mL^−1 anti-cAMP acceptor beads, which are added to the lysis buffer just before addition to the assay plate. The assay plate is then incubated at room temperature in the dark, for 60 minutes with gentle shaking, and read on the Envision plate reader (Perkin Elmer).
# The raw data of the reference compounds, test compounds and controls are converted into cAMP concentrations, using the cAMP standard curve, in GraphPadPrism (GraphPad Software Inc). EC50 as well as maximal values of the agonist curves are determined using a 4-parameter logistic equation. The % maximum response values of all test compounds are determined using the top of the treprostinil concentration-response curve.
# T1 sequence (P43119 whole entry): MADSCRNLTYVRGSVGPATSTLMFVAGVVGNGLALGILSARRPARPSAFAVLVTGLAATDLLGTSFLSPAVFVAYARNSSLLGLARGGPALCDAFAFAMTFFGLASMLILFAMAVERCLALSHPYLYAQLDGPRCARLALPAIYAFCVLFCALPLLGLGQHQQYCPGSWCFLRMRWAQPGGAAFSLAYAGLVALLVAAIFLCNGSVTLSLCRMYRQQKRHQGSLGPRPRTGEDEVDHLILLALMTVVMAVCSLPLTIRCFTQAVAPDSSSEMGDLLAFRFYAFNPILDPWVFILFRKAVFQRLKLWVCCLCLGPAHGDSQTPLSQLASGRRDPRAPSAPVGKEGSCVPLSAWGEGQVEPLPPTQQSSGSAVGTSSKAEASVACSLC
row,SMILES,EC50 [nM]
1,"CN1c2nc(-c3ccccc3)c(-c3ccccc3)cc2CCC1CCCCCC(=O)O (single isomer, unassigned) [Example 2.1, 6-(1-methyl-6,7-diphenyl-1,2,3,4-tetrahydro-1,8-naphthyridin-2-yl)hexanoic acid]",30
2,"CN1c2nc(-c3ccccc3)c(-c3ccccc3)cc2CCC1CCCCCC(=O)O (single isomer, unassigned) [Example 2.2, 6-(1-methyl-6,7-diphenyl-1,2,3,4-tetrahydro-1,8-naphthyridin-2-yl)hexanoic acid]",100
3,"CC1CCc2cc(-c3ccccc3)c(-c3ccccc3)nc2N1CCCCCCC(=O)O (single isomer, unassigned) [Example 3.1, 7-(2-methyl-6,7-diphenyl-3,4-dihydro-1,8-naphthyridin-1(2H)-yl)heptanoic acid]",36
4,"CC1CCc2cc(-c3ccccc3)c(-c3ccccc3)nc2N1CCCCCCC(=O)O (single isomer, unassigned) [Example 3.2, 7-(2-methyl-6,7-diphenyl-3,4-dihydro-1,8-naphthyridin-1(2H)-yl)heptanoic acid]",245
5,"Cc1ccc(-c2nc3c(nc2-c2ccc(C)cc2)N(CCCCCCC(=O)O)C(C)CC3)cc1 (single isomer, unassigned) [Example 4.14, 7-(6-methyl-2,3-dip-tolyl-7,8-dihydropyrido[2,3-b]pyrazin-5(6H)-yl)heptanoic acid]",0.13
6,"Cc1ccc(-c2nc3c(nc2-c2ccc(C)cc2)N(CCCCCCC(=O)O)C(C)CC3)cc1 (single isomer, unassigned) [Example 4.15, 7-(6-methyl-2,3-dip-tolyl-7,8-dihydropyrido[2,3-b]pyrazin-5(6H)-yl)heptanoic acid]",0.48
7,"Cc1ccc(-c2nc3c(nc2-c2ccc(C)cc2)N(CCCCCCC(=O)O)CC(O)C3O)cc1 (single isomer, unassigned) [Example 8.2a, 7-(7,8-dihydroxy-2,3-dip-tolyl-7,8-dihydropyrido[2,3-b]pyrazin-5(6H)-yl)heptanoic acid]",0.49
8,"Cc1ccc(-c2nc3c(nc2-c2ccc(C)cc2)N(CCCCCCC(=O)O)CC(O)C3O)cc1 (single isomer, unassigned) [Example 8.2b, 7-(7,8-dihydroxy-2,3-dip-tolyl-7,8-dihydropyrido[2,3-b]pyrazin-5(6H)-yl)heptanoic acid]",0.89
9,"O=C(O)CCCCCCN1CCCc2cc(-c3ccccc3)c(-c3ccccc3)nc21 [Example 1.1, 7-(6,7-Diphenyl-3,4-dihydro-1,8-naphthyridin-1(2H)-yl)heptanoic acid]",5.5
10,"O=C(O)CCCCCCN1CCCc2nc(-c3ccccc3)c(-c3ccccc3)nc21 [Example 4.1, 7-(2,3-diphenyl-7,8-dihydropyrido[3,2-b]pyrazin-5(6H)-yl)heptanoic acid]",1.2
11,"Cc1ccc(-c2nc3c(nc2-c2ccc(C)cc2)N(CCCCCCC(=O)O)CCC3)cc1 [Example 4.3, 7-(2,3-Dip-tolyl-7,8-dihydropyrido[2,3-b]pyrazin-5(6H)-yl)heptanoic acid]",0.11
12,"Cc1ccc(-c2nc3c(nc2-c2ccccc2)CCCN3CCCCCCC(=O)O)cc1 [Example 5.2, 7-(2-Phenyl-3-p-tolyl-7,8-dihydropyrido[2,3-b]pyrazin-5(6H)-yl)heptanoic acid]",0.08
13,"Cc1ccc(-c2nc3c(nc2-c2ccc(C)c(F)c2)N(CCCCCCC(=O)O)CCC3)cc1F [Example 6.1, 7-(2,3-bis(3-Fluoro-4-methylphenyl)-7,8-dihydropyrido[2,3-b]pyrazin-5(6H)-yl)heptanoic acid]",0.32

# Results, then the compound that gave them:
row,EC50 [nM],SMILES
1,57,"Cc1ccc(-c2nc3c(nc2-c2ccc(C)cc2)N(CCCC(O)C(O)CC(=O)O)CCC3)cc1 (racemic) [Example 15.1, rac-7-(2,3-Dip-tolyl-7,8-dihydropyrido[2,3-b]pyrazin-5(6H)-yl)-3,4-dihydroxyheptanoic acid]"
2,0.296,"Cc1ccc(-c2nc3c(nc2-c2ccc(C)cc2)N(CCCCCCC(=O)O)CCC3O)cc1 (single isomer, unassigned) [Example 9.8, rac-7-(8-Hydroxy-2,3-dip-tolyl-7,8-dihydropyrido[2,3-b]pyrazin-5(6H)-yl)heptanoic acid]"
3,0.4,"Cc1ccc(-c2nc3c(nc2-c2ccc(C)cc2)N(CCCCCCC(=O)O)CCC3O)cc1 (single isomer, unassigned) [Example 9.8a, 7-(8-Hydroxy-2,3-dip-tolyl-7,8-dihydropyrido[2,3-b]pyrazin-5(6H)-yl)heptanoic acid]"
4,1.8,"Cc1ccc(-c2nc3c(nc2-c2ccc(C)cc2)N(CCCCCCC(=O)O)CCC3O)cc1 (single isomer, unassigned) [Example 9.8b, 7-(8-Hydroxy-2,3-dip-tolyl-7,8-dihydropyrido[2,3-b]pyrazin-5(6H)-yl)heptanoic acid]"
5,0.0718,"Cc1ccc(-c2nc3c(nc2-c2ccc(C)cc2)N(CCCCCCC(=O)O)CC(O)C3)cc1 (single isomer, unassigned) [Example 14.1, 7-(7-hydroxy-2,3-dip-tolyl-7,8-dihydropyrido[2,3-b]pyrazin-5(6H)-yl)heptanoic acid]"
6,0.0627,"Cc1ccc(-c2nc3c(nc2-c2ccc(C)cc2)N(CCCCCCC(=O)O)CC(O)C3)cc1 (single isomer, unassigned) [Example 14.2, 7-(7-hydroxy-2,3-dip-tolyl-7,8-dihydropyrido[2,3-b]pyrazin-5(6H)-yl)heptanoic acid]"
7,3,"COC1Cc2nc(-c3ccc(C)cc3)c(-c3ccc(C)cc3)nc2N(CCCCCCC(=O)O)C1 (single isomer, unassigned) [Example 17.1a, 7-(7-methoxy-2,3-dip-tolyl-7,8-dihydropyrido[2,3-b]pyrazin-5(6H)-yl)heptanoic acid]"
8,4.8,"COC1Cc2nc(-c3ccc(C)cc3)c(-c3ccc(C)cc3)nc2N(CCCCCCC(=O)O)C1 (single isomer, unassigned) [Example 17.1b, 7-(7-methoxy-2,3-dip-tolyl-7,8-dihydropyrido[2,3-b]pyrazin-5(6H)-yl)heptanoic acid]"
9,5.6,"O=C(O)CCCCCCN1CC[C@@H](O)c2nc(-c3ccccc3)c(-c3ccccc3)nc21 [Example 9.1, (R)-7-(8-Hydroxy-2,3-diphenyl-7,8-dihydropyrido[2,3-b]pyrazin-5(6H)-yl)heptanoic acid]"
10,8.6,"O=C(O)CCCCCCN1CC[C@H](O)c2nc(-c3ccccc3)c(-c3ccccc3)nc21 [Example 9.2, (S)-7-(8-Hydroxy-2,3-diphenyl-7,8-dihydropyrido[2,3-b]pyrazin-5(6H)-yl)heptanoic acid]"
11,0.0754,"Cc1ccc(-c2nc3c(nc2-c2ccc(C)cc2)N(CCCCCCC(=O)O)C(=O)CC3)cc1 [Example 12.1, 7-(6-oxo-2,3-dip-tolyl-7,8-dihydropyrido[2,3-b]pyrazin-5(6H)-yl)heptanoic acid]"
12,0.74,"Cc1ccc(-c2nc3c(nc2-c2ccc(C)cc2)N(CCCCCCC(=O)O)C(=O)C(O)C3)cc1 (stereo not shown) [Example 16.1, 7-(7-Hydroxy-6-oxo-2,3-dip-tolyl-7,8-dihydropyrido[2,3-b]pyrazin-5(6H)-yl)heptanoic acid]"

# Same assay, conditions: read-out: EC50 values in the data measurements described above
row,EC50 [nM],SMILES
1,> 10000,"O=C(O)CCCCN1CCCc2cc(-c3ccccc3)c(-c3ccccc3)nc21 [5-(6,7-diphenyl-3,4-dihydro-1,8-naphthyridin-1(2H)-yl)pentanoic acid]"
2,> 10000,"CCCc1ccc(-c2nc3c(nc2-c2ccc(CCC)cc2)N(CCCCCC(=O)OCC)CCC3)cc1 [ethyl 6-(2,3-bis(4-propylphenyl)-7,8-dihydropyrido[2,3-b]pyrazin-5(6H)-yl)hexanoate]"
3,> 10000,"CCOC(=O)CCCCCCN1CCCc2nc(-c3cccc(C)c3)c(-c3ccc(C)cc3)nc21 [ethyl 7-(2-(m-tolyl)-3-(p-tolyl)-7,8-dihydropyrido[2,3-b]pyrazin-5(6H)-yl)heptanoate]"

# — patent publication US9132127B2, “Substituted pyrido[2,3-B]pyrazines as IP receptor agonists” (Novartis AG, priority 2010, dated 2015)
